In patent US20170281541A1, “LIPOSOME-BASED MUCUS-PENETRATING PARTICLES FOR MUCOSAL DELIVERY” (The Johns Hopkins University, priority 2014, published 2017):

Test: CEST imaging in vivo (diaCEST MRI) after intravaginal administration
Set-up: species or system mice
Description: Naturally cycling, estrus phase female mice were used for the intravaginal distribution study and the in vivo CEST imaging studies. In brief, female CF-1 mice (6-8 weeks old, Harlan, Indianapolis, Ind.) were housed in a reversed light cycle facility (12-hour light/12-hour dark). Mice were selected for external estrus appearance, which was confirmed upon dissection. All animal studies were performed in accordance to protocols approved by the Institutional Animal Care and Use Committee (IACUC) at the Johns Hopkins University.
Mice were anesthetized using isoflurane and positioned in a 11.7 T horizontal bore Bruker Biospec scanner (Bruker Biosciences, Billerica, Mass.). Twenty microliters of BA-loaded 7 mol %-PEG liposome suspension (4 mg BA/mL) or free BA solution at a equivalent dose were administered intravaginally via a customized catheter. Imaging was performed before and at 30 min-intervals after the intravaginal administration up to 1.5 h. Axial images were acquired at ˜2 mm above the tip of the catheter that was inserted ˜5 mm deep from the vaginal opening. […]
MR images were processed using custom-written Matlab scripts with the CEST contrast quantified by calculating the asymmetry in the magnetization transfer ratio (MTRasym) using MTRasym=(S−Δω−S+Δω)/S0 for NH protons at the frequency offset of BA from water (Δω)=5 ppm. […]

## O=C1CC(=O)NC(=O)N1 [unencapsulated BA, barbituric acid]
intravaginal, mice, imaging up to 1.5 h
  vaginal retention time / duration of CEST contrast: ~30 min
Liposomal vs unencapsulated BA
  vaginal retention by diaCEST MRI: much shorter vaginal retention time
